Test results taken from patent publication US20120022032A1, “CORTICOSTEROID COMPOSITIONS AND METHODS OF TREATMENTS THEREOF” (priority 2008, published 2012).
In brackets after ≈: the same amount, converted by molar mass. Where two headings read alike, the source gives them in different places.

Key:
Format in all cases: physicochemical
[1] = MF solubility in cyclodextrin solutions; settings: 3 mM citrate buffer pH 4.5
[2] = Effect of additives on MF solubility in 0.2 M Captisol solution; settings: aqueous with cosolvent or surfactant or cyclodextrin
Method: A stock solution of 0.2 M Captisol (SBE beta cyclodextrin) was prepared. Table 5 and FIG. 4 list the effect of various additives on the MF solubility of this solution: […]

[3] = MF solubility in cyclodextrin solutions; settings: 3 mM citrate buffer pH 4.5; remark: listed apart in the source
Method: Compositions of mometasone furoate 6 mg/ml were prepared in duplicate with a 0.05, […], and 0.2 M of four different cyclodextrins: an unsubstituted gamma cyclodextrin, a sulfobutyl ether (SBE) beta cyclodextrin (Captisol), and two substituted SBE gamma cyclodextrins. Only 0.05 and 0.1M cyclodextrins were evaluated for the unsubstituted gamma cyclodextrin. All compositions were prepared in a 3 mM citrate buffer at a pH of 4.5. The compositions were placed on a roller mixer (Stuart Scientific SRT233 rpm rise/fall 16 mm) protected from light and mixed for about three days. After the three day equilibration, the compositions were filtered using a 0.22 micrometer PVDF syringe filter and analyzed by HPLC.

[4] = Microemulsion equilibrium solubility determination of mometasone furoate; settings: POLOXAMER 407-based microemulsion, aqueous with cosolvent or surfactant or cyclodextrin, thermodynamic from solid, microemulsion: ethyl laurate 5% w/w, POLOXAMER 407 10% w/w; read-out: MF Solubility
[5] = Micellar solubility determination of MF in 10% surfactant solutions in water; settings: for solubility: 10% w/w excipient solution in water, aqueous with cosolvent or surfactant or cyclodextrin, thermodynamic from solid
Method: To determine the solubility of MF in various solutions, various MF solutions are prepared by measuring each excipient into a beaker at a 10% w/w concentration. If needed, the excipients are melted using a water bath maintained at 65° C. for approximately 30 minutes. The composition is q.s. to 50 g with water and mixed with an overhead/lightening mixer. Approximately 50-60 mg of anhydrous mometasone furoate anhydrous is added into each mixture. The solutions are mixed at a low speed on a shaker (Eberbacher) for about 48 to about 72 hours. Approximately 20 mL of each suspension are removed and centrifuged at 1200 rpm for 12 minutes. Approximately 5 mL of the supernatant is filtered using a 0.22 μm syringe filter. A 1 mL sample is taken from each filtered sample, diluted, and assayed using an HPLC.

[6] = Microemulsion equilibrium solubility determination of mometasone furoate; settings: for concentration of mometasone furoate achieved: 5% MIGLYOL; for solubility at 72 h: SOLUTOL HS-15-based microemulsion, aqueous with cosolvent or surfactant or cyclodextrin, thermodynamic from solid
Method: The equilibrium solubility of mometasone furoate is determined in SOLUTOL® HS-15-based microemulsion composition composed of 20% of SOLUTOL® HS-15 with varying amounts of different oils (FIG. 2, Table 2). An excess amount of the drug is added in the solutions after water had been added. The vials is shaken over a 72 hour period. The solutions is centrifuged and filtered at various time intervals prior to analysis of the samples by HPLC. The drug solubility ranged from 300 mcg/ml to 600 mcg/g. Alternative oils are also explored (Table 3).
The concentration was ˜519 mcg/ml in a similar composition where PBS was replaced with water. To achieve a concentration of exactly 500 mcg/ml, roughly 5 mg of the drug was weighed and added to a mixture of 2 g of SOLUTOL® HS-15 and 0.5 g of MIGLYOL® 812, that was previously mixed using a magnetic stir bar. After the drug was dissolved in the pre-concentrate, 7.5 g of distilled water was added to the above mix to formulate a microemulsion of mometasone furoate.

[7] = anhydrous MF, 10% w/w CREMOPHOR RH 40 (polyoxyl 40 hydrogenated castor oil) in water
[8] = anhydrous MF, 10% w/w SOLUTOL HS 15 (polyethylene glycol 660-12 hydroxystearate) in water
[9] = anhydrous MF, 10% w/w TWEEN 80 (polysorbate 80) in water

C[C@@H]1C[C@H]2[C@@H]3CCC4=CC(=O)C=C[C@]4(C)[C@@]3(Cl)[C@@H](O)C[C@]2(C)[C@@]1(OC(=O)c1ccco1)C(=O)CCl [MF, mometasone furoate]
Concentration of MF in solutions with cyclodextrins ([1]; Captisol (SBE beta-CD) 0.1M): 152 µg/mL | Concentration of MF in solutions with cyclodextrins ([1]; SBE(6.1) gamma-CD 0.1M): 626 µg/mL | Concentration of MF in solutions with cyclodextrins ([1]; SBE(6.2) gamma-CD 0.1M): 569 µg/mL | solubility ([2]; 0.2 M Captisol + 0.01% w/v Polysorbate 80): 235 µg/mL | solubility ([2]; 0.2 M Captisol + 0.02% w/v Benzalkonium Chloride): 243 µg/mL | solubility ([2]; 0.2 M Captisol + 0.1% w/v HPMC): 258 µg/mL | solubility ([2]; 0.2 M Captisol + 0.1% w/v Na-CMC): 242 µg/mL | solubility ([2]; 0.2 M Captisol + 0.1% w/v PVP-30): 290 µg/mL | solubility ([2]; 0.2 M Captisol + 1% v/v EtOH): 236 µg/mL | solubility ([2]; 0.2 M Captisol + 2.1% w/v Glycerin): 220 µg/mL | solubility ([2]; 0.2 M Captisol + 10% v/v EtOH): 121 µg/mL | solubility ([2]; 0.2 M Captisol + 10% w/v Propylene Glycol): 107 µg/mL | Concentration of MF in solutions with cyclodextrins ([3]; Captisol (SBE beta-CD) 0.05M, three day equilibration): 84 µg/mL | Concentration of MF in solutions with cyclodextrins ([3]; Captisol (SBE beta-CD) 0.2M): 261 µg/mL | Concentration of MF in solutions with cyclodextrins ([3]; SBE(6.1) gamma-CD 0.05M): 262 µg/mL | Concentration of MF in solutions with cyclodextrins ([3]; SBE(6.1) gamma-CD 0.2M): 1840 µg/mL | Concentration of MF in solutions with cyclodextrins ([3]; SBE(6.2) gamma-CD 0.05M): 250 µg/mL | Concentration of MF in solutions with cyclodextrins ([3]; SBE(6.2) gamma-CD 0.2M): 1940 µg/mL | Concentration of MF in solutions with cyclodextrins ([3]; unsubstituted gamma-CD 0.05M): 117 µg/mL | Concentration of MF in solutions with cyclodextrins ([3]; unsubstituted gamma-CD 0.1M): 249 µg/mL | solubility at 72 h [4]: 90 µg/mL (≈ 173 µM) | solubility ([5]; 10% Vitamin E TPGS in water): ~500 µg/mL (≈ 959 µM) | solubility [5, 7]: 180 to 200 µg/mL (≈ 345 to 384 µM) | solubility ([5]; anhydrous MF, 10% w/w LUTROL F127 (poloxamer 407) in water): 27 µg/mL (≈ 51.8 µM) | solubility [5, 8]: 180 to 200 µg/mL (≈ 345 to 384 µM) | solubility [5, 9]: 180 to 200 µg/mL (≈ 345 to 384 µM) | solubility ([5]; anhydrous MF, 10% w/w Vitamin E TPGS (d-α tocopheryl PEG 1000 succinate) in water): 499 µg/mL (≈ 957 µM) | solubility ([5]; solutions with 10% polyoxamers): < 30 µg/mL | solubility ([5]; solutions with 10% polyvinylpyrrolidones): < 30 µg/mL | MF Solubility [5, 7]: 189 µg/mL | MF Solubility [5, 8]: 184 µg/mL | MF Solubility [5, 9]: 199 µg/mL | concentration of mometasone furoate achieved ([6]; 20% w/w SOLUTOL HS-15, 75% phosphate buffer system (PBS)): 538 µg/mL | concentration of mometasone furoate achieved ([6]; 20% w/w SOLUTOL HS-15, PBS replaced with water): ~519 µg/mL | solubility at 72 h ([6]; 20% SOLUTOL HS-15 microemulsions with varying amounts of different oils, 72 hour shaking, read-out: drug solubility (equilibrium)): 300 to 600 µg/mL (≈ 575 to 1150 µM) | solubility at 72 h ([6]; microemulsion Example 1: MIGLYOL 812 4% w/w, SOLUTOL HS 15 20% w/w, read-out: Solubilized MF): 502 µg/mL (≈ 963 µM) | solubility at 72 h ([6]; microemulsion Example 2: MIGLYOL 812 5% w/w, SOLUTOL HS 15 20% w/w, read-out: Solubilized MF): 538 µg/mL (≈ 1030 µM) | solubility at 72 h ([6]; microemulsion Example 4: MIGLYOL 840 4% w/w, SOLUTOL HS 15 20% w/w, read-out: Solubilized MF): 540 µg/mL (≈ 1040 µM) | solubility at 72 h ([6]; microemulsion Example 5: CAPRYOL 3% w/w, SOLUTOL HS 15 20% w/w, read-out: Solubilized MF): 422 µg/mL (≈ 809 µM) | solubility at 72 h ([6]; microemulsion Example 6: corn oil 3% w/w, SOLUTOL HS 15 20% w/w, read-out: Solubilized MF): 408 µg/mL (≈ 782 µM) | solubility at 72 h ([6]; microemulsion Example 7: oleic acid 2% w/w, SOLUTOL HS 15 20% w/w, read-out: Solubilized MF): 323 µg/mL (≈ 619 µM) | solubility at 72 h ([6]; microemulsion Example 8: soybean oil 1% w/w, SOLUTOL HS 15 20% w/w, read-out: Solubilized MF): 375 µg/mL (≈ 719 µM) | solubility at 72 h ([6]; microemulsion Example 9: soybean oil 2% w/w, SOLUTOL HS 15 20% w/w, read-out: Solubilized MF): 397 µg/mL (≈ 761 µM) | solubility at 72 h ([6]; microemulsion: ethyl laurate 5% w/w, polyethylene glycol 660-12 hydroxystearate 20% w/w, read-out: MF Solubility): 540 µg/mL (≈ 1040 µM) | drug concentration determined by HPLC ([6]; about 5 mg drug dissolved in 2 g SOLUTOL HS-15 + 0.5 g MIGLYOL 812, then 7.5 g distilled water, target 500 mcg/ml): 500 µg/mL
